# Source: patent US20230127498A1, “TREATMENT OF RESPIRATORY DISORDERS” (Terns, Inc., priority 2020, published 2023)
# Structures can show the parent of a compound that is named as a salt. Where two headings read alike, the source gives them in different places.
# Columns and labels:
# [1] = cited from earlier work
# [2] = test system: rhinovirus; settings: mice sensitized with HDM, challenged with HDM and rhinovirus; cited from earlier work
# [3] = in vivo; cited from earlier work
# [4] = test system: methylamine (MMA); test: Single-ascending dose clinical trial: plasma methylamine (MMA) levels; assay type: in vivo, human
# Protocol: (§1) Safety was assessed for 7 (±3) days after dosing.
# [5] = Rat model of NASH; settings: in vivo
# [6] = biological target: T1, SSAO (Homo sapiens, UniProt Q16853); test: Single-ascending dose clinical trial: plasma SSAO activity (H2O2 generation); assay type: in vivo
# T1 construct: from tissue; host or cells: human plasma (healthy volunteers)
# T1 sequence (Q16853 27-763 limits assumed): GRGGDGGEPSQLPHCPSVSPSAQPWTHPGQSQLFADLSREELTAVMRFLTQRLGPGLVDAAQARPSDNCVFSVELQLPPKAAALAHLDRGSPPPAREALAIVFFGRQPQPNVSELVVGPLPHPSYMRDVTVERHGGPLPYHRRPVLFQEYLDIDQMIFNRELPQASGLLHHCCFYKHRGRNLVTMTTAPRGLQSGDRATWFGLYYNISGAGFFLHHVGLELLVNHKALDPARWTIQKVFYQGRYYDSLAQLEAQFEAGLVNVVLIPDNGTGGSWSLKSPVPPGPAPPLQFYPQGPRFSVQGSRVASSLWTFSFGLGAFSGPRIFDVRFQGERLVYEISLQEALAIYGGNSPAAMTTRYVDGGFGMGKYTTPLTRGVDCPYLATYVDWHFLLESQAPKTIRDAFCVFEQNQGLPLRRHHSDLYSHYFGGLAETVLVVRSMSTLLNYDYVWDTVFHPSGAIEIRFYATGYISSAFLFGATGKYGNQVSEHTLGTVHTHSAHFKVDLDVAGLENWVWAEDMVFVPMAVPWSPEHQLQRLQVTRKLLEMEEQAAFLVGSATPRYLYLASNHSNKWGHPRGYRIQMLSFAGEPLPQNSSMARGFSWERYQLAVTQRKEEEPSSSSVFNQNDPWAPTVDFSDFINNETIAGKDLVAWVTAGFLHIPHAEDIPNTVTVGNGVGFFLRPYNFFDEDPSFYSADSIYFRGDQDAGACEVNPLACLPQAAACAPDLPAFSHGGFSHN
# Protocol: as §1
# (§2) Plasma PK parameters were determined by non-compartmental analysis.
# SSAO-specific amine oxidase levels in plasma were determined using a kinetic-based assay essentially as described previously (Schilter et al). Endogenous monoamine oxidases A and B were inhibited by adding pargyline to plasma samples prior to measuring H2O2 generation levels in placebo and active recipients.
# [7] = test system: Influenza A virus, WSN/33 strain of H1N1; settings: for Median survival time / Survival proportion / Prolonged survival time*: Formula 5 20 mg/kg QD, oseltamivir 5 mg/kg BID; for Prolonged survival time*: compared with vehicle group
# [8] = mouse, in vivo; cited from earlier work
# [9] = Single-ascending dose clinical trial: safety, adverse events; assay type: in vivo, human
# Protocol: as §1
# [10] = human, in vivo
# Protocol: as §1, §2
structure (smiles),measurement,setting,value
CC(C)(C)NC(=O)c1ccc(OC/C(=C/F)CN)cc1.Cl [BI 1467335],cytokine-induced cell migration,[1]; by diminishing leukocyte rolling and adherence,reduced
same,LPS-induced neutrophil lung migration,[1]; in vivo,reduced
same,airway hyperreactivity,[2],reduced
same,inflammatory cellular infiltrates,[2],reduced
same,airway infiltration of inflammatory immune cells,[3],suppressed
same,lung function,[3],improved
same,pulmonary fibrosis,[3],reduced
COC1CCN(c2ncc(OC/C(=C/F)CN)cn2)CC1 [Compound of Formula 5],plasma methylamine,"[4]; across the dose range, single dose",Dose-dependent increases
same,duration of dose-dependent increases in plasma MMA,[4]; after single doses,up to 1 week
same,Maximum plasma MMA levels,[4]; single dose,increased
same,liver fibrosis,[5],decreases
same,liver inflammation,[5],decreases
same,inhibition of plasma SSAO activity at 4 hours post-dose,"[6]; all dose cohorts, single dose",near complete inhibition
same,duration of suppression of plasma SSAO activity after a single dose,[6]; single dose,up to 1 week
same,plasma amine oxidase activity,"[6]; single doses, all subjects",rapidly and potently decreased
same,duration of SSAO activity inhibition after a single dose,[6]; single oral dose 1 mg to 10 mg,up to seven days
same,Median survival time,[7]; […],6 days
same,Survival proportion,[7]; […],0%
same,Prolonged survival time*,[7]; […],20%
same,exacerbation of viral replication or pathology,[7]; monotherapy or in combination with oseltamivir,did not appear to exacerbate
same,Prolonged survival time*,[7]; prophylactic,20%
"CCOC(=O)C1=C[C@@H](OC(CC)CC)[C@H](NC(C)=O)[C@@H](N)C1 [Oseltamivir, oseltamivir, reference compound]",Median survival time,[7]; […],undefined
same,Survival proportion,[7]; […],100%
same,Prolonged survival time*,[7]; […],undefined
same,Prolonged survival time*,[7]; prophylactic,undefined
NC/C(=C\F)COc1ccc(S(N)(=O)=O)cc1 [PXS-4681A],cytokine production,[8],reduced
same,effects relative to dexamethasone treatment,[8],comparable
same,leukocyte trafficking,[8],reduced
COC1CCN(c2ncc(OC/C(=C/F)CN)cn2)CC1 [toslyate salt of Formula 5],TEAE diagnosis and frequency: upper respiratory tract infection,[9]; All cohorts (n = 32),1 (3.1)
same,TEAE diagnosis and frequency: upper respiratory tract infection,"[9]; cohort 1, single oral dose 1 mg or placebo (n = 8)",0
same,TEAE diagnosis and frequency: upper respiratory tract infection,"[9]; cohort 2, single oral dose 3 mg or placebo (n = 8)",0
same,TEAE diagnosis and frequency: upper respiratory tract infection,"[9]; cohort 3, single oral dose 6 mg (n = 8)",0
same,TEAE diagnosis and frequency: upper respiratory tract infection,"[9]; cohort 4, single oral dose 10 mg or placebo (n = 8)",1 (12.5)
same,Subject incidence of TEAEs considered possibly treatment-related,"[9]; human, in vivo",1 (3.1)
same,Subject incidence of any TEAE,"[9]; human, in vivo",5 (15.6)
same,TEAE diagnosis and frequency: constipation,"[9]; human, in vivo",1 (3.1)
same,TEAE diagnosis and frequency: contact dermatitis,"[9]; human, in vivo",2 (6.3)
same,TEAE diagnosis and frequency: dysgeusia,"[9]; human, in vivo",1 (3.1)
same,TEAE diagnosis and frequency: headache,"[9]; human, in vivo",1 (3.1)
same,TEAE diagnosis and frequency: sore throat,"[9]; human, in vivo",1 (3.1)
same,TEAE diagnosis and frequency: oral herpes,"[9]; human, in vivo, po",1 (3.1)
same,clearance from plasma,[10],rapidly cleared from plasma
same,plasma PK exposure dose proportionality,[10],greater than dose proportional
